From ChEMBL document CHEMBL1909046, “DrugMatrix in vitro pharmacology data”

Assays:
Cannabinoid receptor 1 = Cannabinoid receptor 1 (Homo sapiens, UniProt P21554); assay type: cell membranes, Chem-1, Membrane; note: in other assays of this panel Not Active means under 50% inhibition at 10 µM
[1] = target: T1, C-C chemokine receptor type 4 (Homo sapiens, UniProt P51679); assay type: cell membranes, Membrane; conditions: chem-1; note: in other assays of this panel Not Active means under 50% inhibition at 10 µM
T1 sequence (P51679 whole entry): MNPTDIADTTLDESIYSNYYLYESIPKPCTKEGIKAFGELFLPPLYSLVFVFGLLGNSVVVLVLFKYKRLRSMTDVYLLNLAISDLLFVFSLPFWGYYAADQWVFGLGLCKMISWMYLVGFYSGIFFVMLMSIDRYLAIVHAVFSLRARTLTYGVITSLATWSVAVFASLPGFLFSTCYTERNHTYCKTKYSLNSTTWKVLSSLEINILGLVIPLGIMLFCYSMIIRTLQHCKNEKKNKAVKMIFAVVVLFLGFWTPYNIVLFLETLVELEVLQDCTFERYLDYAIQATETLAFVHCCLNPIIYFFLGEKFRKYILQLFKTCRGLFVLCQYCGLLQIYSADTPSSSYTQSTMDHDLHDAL

[2] = DRUGMATRIX: GABAA, Muscimol, Central radioligand binding (ligand: [3H] Muscimol); assay type: cell membranes, Rattus norvegicus, Wistar, Brain, Membrane; conditions: Not Active = under 50% inhibition at 10 µM
[3] = target: T2, Muscarinic acetylcholine receptor M2 (Homo sapiens, UniProt P08172); assay type: cell membranes, CHO-K1, Membrane; conditions: cho-k1; note: in other assays of this panel Not Active means under 50% inhibition at 10 µM
T2 sequence (P08172 whole entry): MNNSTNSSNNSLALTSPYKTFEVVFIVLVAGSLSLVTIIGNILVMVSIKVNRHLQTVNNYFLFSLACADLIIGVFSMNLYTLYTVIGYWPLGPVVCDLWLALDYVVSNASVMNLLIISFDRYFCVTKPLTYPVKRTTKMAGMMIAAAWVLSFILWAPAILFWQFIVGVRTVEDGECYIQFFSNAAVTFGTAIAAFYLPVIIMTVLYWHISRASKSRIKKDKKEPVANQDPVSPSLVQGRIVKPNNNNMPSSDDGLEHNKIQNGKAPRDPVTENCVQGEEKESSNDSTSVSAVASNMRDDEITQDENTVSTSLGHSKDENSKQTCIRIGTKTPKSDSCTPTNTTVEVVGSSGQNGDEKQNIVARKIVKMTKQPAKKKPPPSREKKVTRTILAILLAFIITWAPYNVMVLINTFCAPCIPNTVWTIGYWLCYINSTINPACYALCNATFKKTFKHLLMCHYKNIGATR

[4] = target: Mitogen-activated protein kinase 1 (Homo sapiens, UniProt P28482); assay: DRUGMATRIX: Protein Serine/Threonine Kinase, ERK2 enzyme inhibition (substrate: Myelin Basic Protein); parameters: species or system Escherichia coli; conditions: Not Active = under 50% inhibition at 10 µM
Sequence of Mitogen-activated protein kinase 1 (P28482 whole entry): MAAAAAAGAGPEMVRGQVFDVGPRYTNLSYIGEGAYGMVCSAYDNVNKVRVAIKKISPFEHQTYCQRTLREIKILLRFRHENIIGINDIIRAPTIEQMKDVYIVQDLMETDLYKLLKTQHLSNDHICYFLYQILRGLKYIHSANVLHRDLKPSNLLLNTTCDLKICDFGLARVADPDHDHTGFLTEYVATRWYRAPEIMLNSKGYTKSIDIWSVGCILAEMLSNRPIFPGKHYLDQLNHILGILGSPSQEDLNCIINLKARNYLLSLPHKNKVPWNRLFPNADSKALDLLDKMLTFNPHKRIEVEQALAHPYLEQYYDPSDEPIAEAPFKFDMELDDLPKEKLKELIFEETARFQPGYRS

Cytochrome P450 1A2 = target: T3, Cytochrome P450 1A2 (Homo sapiens, UniProt P05177); conditions: bti-tn-5b1-4; note: in other assays of this panel Not Active means under 50% inhibition at 10 µM
T3 sequence (P05177 whole entry): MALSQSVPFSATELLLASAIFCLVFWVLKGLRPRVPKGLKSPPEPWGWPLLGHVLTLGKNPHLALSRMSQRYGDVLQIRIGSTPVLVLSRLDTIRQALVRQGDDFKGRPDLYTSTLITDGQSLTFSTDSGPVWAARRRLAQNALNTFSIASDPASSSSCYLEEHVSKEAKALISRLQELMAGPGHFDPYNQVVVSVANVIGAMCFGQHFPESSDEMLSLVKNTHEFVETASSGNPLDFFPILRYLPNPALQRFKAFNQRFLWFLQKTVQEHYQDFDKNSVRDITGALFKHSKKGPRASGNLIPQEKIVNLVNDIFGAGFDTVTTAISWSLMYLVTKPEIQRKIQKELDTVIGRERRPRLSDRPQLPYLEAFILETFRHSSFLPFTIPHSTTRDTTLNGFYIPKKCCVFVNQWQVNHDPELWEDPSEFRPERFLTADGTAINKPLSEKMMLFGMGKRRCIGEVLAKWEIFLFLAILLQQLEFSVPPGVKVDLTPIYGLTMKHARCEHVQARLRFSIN

Cytochrome P450 2D6 = Cytochrome P450 2D6 (Homo sapiens, UniProt P10635); conditions: bti-tn-5b1-4; note: in other assays of this panel Not Active means under 50% inhibition at 10 µM
Sequence of Cytochrome P450 2D6 (P10635 whole entry): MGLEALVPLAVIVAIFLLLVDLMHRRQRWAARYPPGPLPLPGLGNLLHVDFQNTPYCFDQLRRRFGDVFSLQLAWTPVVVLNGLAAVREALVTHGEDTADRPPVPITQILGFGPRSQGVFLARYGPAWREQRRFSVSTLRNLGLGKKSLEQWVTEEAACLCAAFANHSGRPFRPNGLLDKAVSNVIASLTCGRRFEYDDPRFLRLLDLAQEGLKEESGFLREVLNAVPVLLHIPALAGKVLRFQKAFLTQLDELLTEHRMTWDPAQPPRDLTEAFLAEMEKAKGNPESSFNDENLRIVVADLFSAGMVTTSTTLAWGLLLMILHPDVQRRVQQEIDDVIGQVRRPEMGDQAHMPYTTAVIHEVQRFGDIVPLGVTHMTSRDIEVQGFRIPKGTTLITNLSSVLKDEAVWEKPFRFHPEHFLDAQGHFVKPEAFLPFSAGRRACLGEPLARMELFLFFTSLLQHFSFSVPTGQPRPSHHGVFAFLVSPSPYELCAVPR

Sequence of Cannabinoid receptor 1 (P21554 whole entry): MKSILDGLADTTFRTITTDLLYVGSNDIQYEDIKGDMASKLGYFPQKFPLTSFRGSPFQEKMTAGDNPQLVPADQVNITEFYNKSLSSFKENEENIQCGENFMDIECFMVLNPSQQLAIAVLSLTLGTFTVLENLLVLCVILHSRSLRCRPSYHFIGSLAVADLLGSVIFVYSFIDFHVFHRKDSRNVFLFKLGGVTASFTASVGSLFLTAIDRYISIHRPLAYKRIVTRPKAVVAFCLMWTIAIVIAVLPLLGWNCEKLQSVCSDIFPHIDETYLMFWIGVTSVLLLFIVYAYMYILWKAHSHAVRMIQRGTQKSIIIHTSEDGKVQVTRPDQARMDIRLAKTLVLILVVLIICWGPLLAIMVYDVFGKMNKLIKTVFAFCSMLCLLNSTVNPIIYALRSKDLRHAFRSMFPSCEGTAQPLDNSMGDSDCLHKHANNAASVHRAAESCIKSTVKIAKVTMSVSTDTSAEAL

Molecule | IC50 (Cannabinoid receptor 1; chem-1) | IC50 [1] | IC50 [2] | Ki [2] | IC50 [3] | IC50 [4] | IC50 (Cytochrome P450 1A2) | Ki (Cytochrome P450 1A2) | IC50 (Cytochrome P450 2D6) | Ki (Cytochrome P450 2D6) | IC50 ([4]; read-out: IC50) [µM] | IC50 (Cannabinoid receptor 1; read-out: IC50) [µM] | Ki (Cannabinoid receptor 1; read-out: Ki) [µM] | Ki (Cannabinoid receptor 1; chem-1) | Ki [1] | Ki [3] | Ki [4]
CC(=O)OCC(=O)[C@@]1(O)CC[C@H]2[C@@H]3CCC4=CC(=O)CC[C@]4(C)[C@H]3C(=O)C[C@@]21C [CORTISONE ACETATE] | Not Active | Not Active | Not Active | Not Active | Not Active | Not Active | Not Active | Not Active | Not Active | Not Active | – | – | – | – | – | – | –
NC(=O)c1cnccn1 [PYRAZINAMIDE] | Not Active | Not Active | Not Active | Not Active | Not Active | Not Active | Not Active | Not Active | Not Active | Not Active | – | – | – | – | – | – | –
O=C1CC[C@H](N2C(=O)c3ccccc3C2=O)C(=O)N1 | Not Active | Not Active | Not Active | Not Active | Not Active | Not Active | Not Active | Not Active | Not Active | Not Active | – | – | – | – | – | – | –
ClC(Cl)Cl [CHLOROFORM] | Not Active | Not Active | Not Active | Not Active | Not Active | Not Active | Not Active | Not Active | Not Active | Not Active | – | – | – | – | – | – | –
CCc1c2c(nc3ccc(OC(=O)N4CCC(N5CCCCC5)CC4)cc13)-c1cc3c(c(=O)n1C2)COC(=O)[C@]3(O)CC [IRINOTECAN] | Not Active | Not Active | Not Active | Not Active | Not Active | Not Active | Not Active | Not Active | Not Active | Not Active | – | – | – | – | – | – | –
CCCN(CCC)C(=O)C(CCC(=O)O)NC(=O)c1ccccc1 (stereo not given) [PROGLUMIDE] | Not Active | Not Active | Not Active | Not Active | Not Active | Not Active | Not Active | Not Active | Not Active | Not Active | – | – | – | – | – | – | –
CCCC(CCC)C(=O)O [VALPROIC ACID] | Not Active | Not Active | Not Active | Not Active | Not Active | Not Active | Not Active | Not Active | Not Active | Not Active | – | – | – | – | – | – | –
Cc1ccccc1C(=O)N1CCC(Cc2ccccc2)CC1 | Not Active | Not Active | Not Active | Not Active | Not Active | Not Active | Not Active | Not Active | Not Active | Not Active | – | – | – | – | – | – | –
CCCC(=O)Nc1ccc(OCC(O)CNC(C)C)c(C(C)=O)c1 (stereo not given) [ACEBUTOLOL] | Not Active | Not Active | Not Active | Not Active | Not Active | Not Active | Not Active | Not Active | Not Active | Not Active | – | – | – | – | – | – | –
Cc1ccc(S(=O)(=O)NC(=O)NN2CC3CCCC3C2)cc1 (stereo not given) [GLICLAZIDE] | Not Active | Not Active | Not Active | Not Active | Not Active | Not Active | Not Active | Not Active | Not Active | Not Active | – | – | – | – | – | – | –
N=C(N)NC(=O)c1nc(Cl)c(N)nc1N [AMILORIDE] | Not Active | Not Active | Not Active | Not Active | Not Active | Not Active | Not Active | Not Active | Not Active | Not Active | – | – | – | – | – | – | –
CC(C)(Oc1ccc(C2CCCc3ccccc32)cc1)C(=O)O (stereo not given) [NAFENOPIN] | Not Active | Not Active | Not Active | Not Active | Not Active | – | Not Active | Not Active | Not Active | Not Active | 0.815 | – | – | – | – | – | –
Cc1cc2cc3c(C)cc(=O)oc3c(C)c2o1 [TRIOXSALEN] | Not Active | Not Active | Not Active | Not Active | Not Active | Not Active | Not Active | Not Active | Not Active | Not Active | – | – | – | – | – | – | –
Oc1ccc(OCc2ccccc2)cc1 [MONOBENZONE] | Not Active | Not Active | Not Active | Not Active | Not Active | Not Active | Not Active | Not Active | Not Active | Not Active | – | – | – | – | – | – | –
O=C1CC2(CCCC2)CC(=O)N1CCCCN1CCN(c2ncccn2)CC1 [BUSPIRONE] | Not Active | Not Active | Not Active | Not Active | Not Active | Not Active | Not Active | Not Active | Not Active | Not Active | – | – | – | – | – | – | –
COc1cccc2c1C(=O)c1c(O)c3c(c(O)c1C2=O)C[C@@](O)(C(=O)CO)C[C@@H]3O[C@H]1C[C@H](N)[C@@H](O)[C@H](C)O1 [EPIRUBICIN] | Not Active | Not Active | Not Active | Not Active | Not Active | Not Active | Not Active | Not Active | Not Active | Not Active | – | – | – | – | – | – | –
C#C[C@]1(O)CC[C@H]2[C@@H]3CCc4cc(OC)ccc4[C@H]3CC[C@@]21C [MESTRANOL] | – | Not Active | Not Active | Not Active | Not Active | Not Active | Not Active | Not Active | Not Active | Not Active | – | 28.5 | 22.5 | – | – | – | –
CC(=O)Nc1ccc(O)cc1 [ACETAMINOPHEN] | Not Active | Not Active | Not Active | Not Active | Not Active | Not Active | Not Active | Not Active | Not Active | Not Active | – | – | – | – | – | – | –
Nc1ccn([C@@H]2CS[C@H](CO)O2)c(=O)n1 [LAMIVUDINE] | Not Active | Not Active | Not Active | Not Active | Not Active | Not Active | Not Active | Not Active | Not Active | Not Active | – | – | – | – | – | – | –
COP(=O)(OC)OC=C(Cl)Cl [DICHLORVOS] | Not Active | Not Active | Not Active | Not Active | Not Active | Not Active | Not Active | Not Active | Not Active | Not Active | – | – | – | – | – | – | –
CADMIUM DICHLORIDE | Not Active | Not Active | Not Active | Not Active | Not Active | Not Active | Not Active | Not Active | Not Active | Not Active | – | – | – | Not Active | Not Active | Not Active | Not Active
C[C@](O)(CS(=O)(=O)c1ccc(F)cc1)C(=O)Nc1ccc(C#N)c(C(F)(F)F)c1 [(R)-BICALUTAMIDE] | Not Active | Not Active | Not Active | Not Active | Not Active | Not Active | Not Active | Not Active | Not Active | Not Active | – | – | – | – | – | – | –
